The values below come from patent publication US12611380B2, “Solution and method for reducing the virulence of viruses, bacteria, yeasts, or fungus” (priority 2020, dated 2026).

Values after ≈ are worked out from the molar mass of the structure shown. Values joined by “and” are separate entries in the source; they are usually repeats but may differ in a detail not shown here. Identical values can stand only once. Starred links: 1 amine or outer side, 2 acyl side, 3 side chain; linkers in the order of their positions; H or OH if unused. Positions of bridges follow the written chain, without caps; N, C: chain ends. Non-standard residues stand in square brackets, D forms with d. Residues, ends and D or L forms follow the SMILES beside them. *: point of attachment. hTyr(3S-OH,4S-OH,3'-OSO3H) = N[C@H](C(=O)O)[C@H](O)[C@@H](O)c1ccc(O)c(OS(=O)(=O)O)c1; Orn(4R-OH,5R-OH) = O=C([C@H](C[C@@H](O)[C@@H](O)N[*:3])N[*:1])[*:2]; Pro(3S-OH,4S-Me) = C[C@H]1CN[C@H](C(=O)O)[C@H]1O; X1 = CCCCCOc1ccc(-c2cc(-c3ccc(C(=O)*)cc3)no2)cc1; Gln(3R-OH) = NC(=O)C[C@@H](O)[C@H](N)C(=O)O; Hyp = O=C(O)[C@@H]1C[C@@H](O)CN1

The format of series [1] is physicochemical. The following applies: for Viscosity: 6% of the named additive added to 8% ILCS (potassium) hydro-gel; for reduction in viscosity: 6% additive in ILCS gel, 140° F. 1-3 days then 108° F. 2-4 days. As to the method:
A simple viscometer, Digital Viscosity Meter (NDJ-8S, Shaoxing Worner Lab Equipment Co., Ltd., China) was used, recognizing the limitations of measuring a solid gelatin hydro-gel. […] The ILCS was initially incubated at 120° F. overnight, equilibrated at […]. prior to viscometry.
ILCS was made from potassium hydroxide (Spectrum Chemical, Louisville, KY), isomerized linoleic acid (Stepan, New Jersey), and USP WFI water (Ceela Naturals), to a final concentration 8% or 333 mM Potassium Linoleate (isomerized).
Many of the amino acids tested were purchased from Ajinomoto (NJ, USA), while tryptophan, proline, and phenylalanine were obtained from Purebulk (Oregon, USA). The Quorum Sensing Agent phenylethanol was purchased from Sigma Aldrich (GA, USA).
The gel and compound were incubated at 140° F. for 1-3 days followed by incubation 108° F. for 2-4 days.

The subject of series [2] is Candida auris, (AR-0381). The following applies: isolate AR Isolate Bank #0381; cited from earlier work.
For series [3], the system named is microbial growth. Briefly: Reduction in microbial growth. The format is cell-based. To be noted: potassium hexadiene at pH 9.
In series [4] the test system is Candida auris (AR-0381).
Experimental: (§1) We used EPA protocol MB-35-00 for testing disinfectants against C. auris (US Environmental Protection Agency. 2017, 2020) and C. albicans ATCC 10231, a yeast common in package spoilage of food and cosmetics.
(§2) We tested 5 batches produced with difference sources of isomerized linoleic acid (Test Substances 1-5).
(§3) The EPA test protocol for testing hard surface disinfection of C. auris (AR0381) with antifungal resistance includes an overnight culture of C. auris (AR.0381) shaken at 200 rpm at 30° C. From this culture, 8 mL was harvested by centrifugation, re-suspended in 2-3 mL phosphate-buffered saline (PBS), and mixed with a 3-part soil load including bovine serum albumin (BSA), yeast extract, and mucin. Metal carriers (10 mm) were inoculated (10 μL culture+soil load) and dried in a desiccator under vacuum (˜70 min). The disk surface was coated with the test substance at 0.42 M (50 μL) for up to 10 min. Following incubation, the carriers were transferred to 10 mL neutralization solution (Sabouraud Dextrose Broth [SDB], a common yeast-mold growth media) for subsequent harvesting on membrane filters. The filtered membranes were transferred to Sabouraud Dextrose Emmons Agar (SDEA) plates to culture for 120 hours at 31° C. Controls consisted of PBS (50 μL) applied to inoculated metal disk carriers, subsequently transferred to 10 mL neutralization solution (SDB), diluted serially in PBS, and plated directly to SDEA plates, See FIG. 2.
(§4) We prepared and qualified these per EPA protocol (US Environmental Protection Agency, 2017). • Soil Stocks: We prepared soil stocks with yeast extract powder (Ref RM027) purchased from Himedia, BSA (A2153) purchased from Sigma Life Science, and gastric mucin (cat #HY-B2196/CS-7626) purchased from Mod Chem Express per SOP MB-35-00 (US Environmental Protection Agency, 2017). • Cell Harvesting: We removed cells from the growth culture media using a Micro-Centrifuge obtained from Changzhou Jintan Sanhe Instrument Co., LTD. (Model TGI6-W) at 10,000×g for 10 min in screw-top-cap vials purchased from Heathrow Scientific (Item HS 100600). The optical density of the inoculate was defined at 15-19 OD600 in PBS with the Ultrospec 10 Cell Density Meter from BioChrom (Holliston, MA, USA) prior to dilution in the soil load. Samples were diluted 1:10 in PBS to obtain absorbance readings between 1.5 and 1.9. • Membrane Filtration: Treated yeasts were collected using a combination of the Rocker (Cat #200300-01) and 47 mm PES membranes with a 0.45 micron pore size obtained from Sterlitech (Catalog #PE54547100).
Series [5] deals with Candida albicans (ATCC 10231). Briefly: EPA protocol MB-35-00 hard surface carrier disinfection test.
Experimental: as §1, §2, §3, §4
Series [6] relates to Vero 76 cells.
The subject of series [7] is SARS-COV-2. Briefly: Virucidal assay, 2 minutes contact, end-point titer (CCID50) on Vero 76 cells. The following applies: Ethanol 63%, 2 minutes.
Setting [8] is: all testing runs (Tables 2 and 3).
The mark [9] stands for this setting: second experiment, Tables 8 and 9.
Setting [10] is: second experiment, positive control, Table 5.

`NC(=O)c1cccnc1` [Niacinamide] returned a Viscosity in series [1] of 33800 milliPoise.
For `CCCCCOc1ccc(-c2cc(-c3ccc(C(=O)N[C@H]4C[C@@H](O)[C@@H](O)NC(=O)[C@@H]5[C@@H](O)[C@@H](C)CN5C(=O)[C@H]([C@H](O)CC(N)=O)NC(=O)[C@H]([C@H](O)[C@@H](O)c5ccc(O)c(OS(=O)(=O)O)c5)NC(=O)[C@@H]5C[C@@H](O)CN5C(=O)[C@H]([C@@H](C)O)NC4=O)cc3)no2)cc1` [Micafungin] (X1-[Orn(4R-OH,5R-OH)]T[Hyp][hTyr(3S-OH,4S-OH,3'-OSO3H)][Gln(3R-OH)][Pro(3S-OH,4S-Me)]; lactam 1-C), in series [2], the minimal inhibitory concentration (MIC) is 0.13 µg/mL (≈ 0.102 µM).
Take `C[C@H](N)C(=O)O` [Alanine]: the Viscosity in series [1] is 40700 milliPoise.
As for Anidulaftrngin, the minimum inhibitory concentration (MIC) in series [2] is 0.25 µg/mL.
Take `Cl.NCCCC[C@H](N)C(=O)O` [Lysine-hcl]: in series [1], the Viscosity was determined as 30700 milliPoise.
The same measure, in the same setting: next, `N[C@@H](CO)C(=O)O` [Serine]: 22300 milliPoise; `Cl.N[C@@H](CS)C(=O)O` [Cysteine-HCl]: 28400 milliPoise; `CSCC[C@H](N)C(=O)O` [Methionine]: 32350 milliPoise.
With `CCC(C)n1ncn(-c2ccc(N3CCN(c4ccc(OCC5COC(Cn6cncn6)(c6ccc(Cl)cc6Cl)O5)cc4)CC3)cc2)c1=O` (stereo not drawn) [Iuaconazole, itraconazole], the MIC in series [2] was 0.13 µg/mL (≈ 0.184 µM).
In series [1], `CC[C@H](C)[C@H](N)C(=O)O` [Iso-Leucine] showed a Viscosity of 29900 milliPoise.
`N=C(N)NCCC[C@H](N)C(=O)O` [Arginine] gave a Viscosity in series [1] of 25600 milliPoise.
Regarding `C/C=C/C=C/C(=O)[O-].[K+]` [Potassium Sorbate, Potassium sorbate], the “reduction in microbial growth” value in series [3] is “little reduction in microbial growth”. For the same compound, the “Test Disks Density (log)” value in series [4] (Exposure 2 min., yeast recovered from treated carriers) was 5.0 log and 4.9 log; in series [5] (Exposure 1 min., yeast recovered from treated carriers), 4.8 log and 4.9 log. Moreover, the kill rates entry in series [4] (setting [8]) and in series [5] (setting [8]) was “less than one log” each time.
Take `C[C@@H](c1ncncc1F)[C@](O)(Cn1cncn1)c1ccc(F)cc1F` [Voriconazole]: in series [2], the minimal inhibitory concentration (MIC) is 0.03 µg/mL (≈ 0.0859 µM).
Regarding `CC[C@H](C)C[C@H](C)CCCCCCCCC(=O)N[C@H]1C[C@@H](O)[C@@H](NCCN)NC(=O)[C@@H]2[C@@H](O)CCN2C(=O)[C@H]([C@H](O)CCN)NC(=O)[C@H]([C@H](O)[C@@H](O)c2ccc(O)cc2)NC(=O)[C@@H]2C[C@@H](O)CN2C(=O)[C@H]([C@@H](C)O)NC1=O` [Caspofungin], in series [2], the MIC was 0.13 µg/mL (≈ 0.119 µM).
Take `N[C@@H](Cc1ccccc1)C(=O)O` [Phenylalanine]: in series [1], the reduction in viscosity result is “two log-reduction in viscosity” and the Viscosity worked out at 130 milliPoise.
Compound `CC(C)(CO)[C@@H](O)C(=O)NCCCO` [D Panthenol] displayed a Viscosity in series [1] of 31600 milliPoise.
In series [1], `NCCCC[C@H](N)C(=O)O` [Lysine base] displayed a Viscosity of 26900 milliPoise.
The compound `CC(C)(CO)C(O)C(=O)NCCCO` (stereo not drawn) [D L Panthenol] returned a Viscosity in series [1] of 28650 milliPoise.
In series [1], `CC(C)[C@H](N)C(=O)O` [Valine] had a Viscosity of 31850 milliPoise.
Consider `N[C@@H](Cc1c[nH]cn1)C(=O)O` [Histidine base], for which the Viscosity in series [1] amounted to 28050 milliPoise.
Turning to `OC(Cn1cncn1)(Cn1cncn1)c1ccc(F)cc1F` [Fluconazolc, fluconazole], in series [2], the minimum inhibitory concentration (MIC) was 4.00 µg/mL (≈ 13.1 µM).
For the compound `N[C@@H](CC(=O)O)C(=O)O` [Aspartic acid], the Viscosity in series [1] is recorded as 25100 milliPoise.
`CC[C@@H]([C@H](C)O)n1ncn(-c2ccc(N3CCN(c4ccc(OC[C@@H]5CO[C@@](Cn6cncn6)(c6ccc(F)cc6F)C5)cc4)CC3)cc2)c1=O` [Posaconazolc, posaconazole]: the MIC in series [2] is 0.06 µg/mL (≈ 0.0856 µM).
In the case of `N[C@@H](Cc1c[nH]c2ccccc12)C(=O)O` [Tryptophan], in series [1], the reduction in viscosity result is given as “two log-reduction in viscosity” and the Viscosity is recorded as 21 milliPoise.
`CCO` [Ethanol, reference compound]: in series [6], the “toxicity to cells in titer plates” value was “toxic to cells”. Moreover, the “LRV (log reduction value)” value in series [7] (Table 7) is more than 1.8; in series [7] (positive control, Table 4) it was more than 1.8; in series [7] (setting [9]) it was more than 2.0; in series [7] (setting [10]), more than 2.0. Further, the Virus Titer in series [7] (Table 7) is recorded as <1.7 Log10 CCID50of virus per 0.1 mL; in series [7] (positive control, Table 4), <1.7 Log10 CCID50 of virus per 0.1 mL; in series [7] (setting [9]), <1.7 Log10 CCID50of virus per 0.1 mL; in series [7] (setting [10]), <1.7 Log10 CCID50 of virus per 0.1 mL.
On to `C[C@@H]1[C@H](O)[C@@H](C)/C=C/C=C/C=C/C=C/C=C/C=C/C=C/[C@H](O[C@@H]2O[C@H](C)[C@@H](O)[C@H](N)[C@@H]2O)C[C@@H]2O[C@](O)(C[C@@H](O)C[C@@H](O)[C@H](O)CC[C@@H](O)C[C@@H](O)CC(=O)O[C@H]1C)C[C@H](O)[C@H]2C(=O)O` [Amphotericin 81], for which the minimum inhibitory concentration (MIC) in series [2] was 0.38 µg/mL (≈ 0.411 µM).
On to `Nc1[nH]c(=O)ncc1F` [Flucytosine], for which the MIC in series [2] is 2.00 µg/mL (≈ 15.5 µM).
Regarding `C[C@@H](O)[C@H](N)C(=O)O` [Threonine], the Viscosity in series [1] is recorded as 30650 milliPoise.
